# Experimental data: patent US20110294766A1, “16 Alpha, 17 Alpha-Acetal Glucocorticosteroidal Derivatives and their Use” (AstraZeneca AB, priority 2008, published 2011)
# Target: T1, recombinant human GR (Homo sapiens, UniProt P04150)
# T1 construct: purchased Panvera/Invitrogen P2812 (kit P2893)
# T1 sequence (P04150 1-777): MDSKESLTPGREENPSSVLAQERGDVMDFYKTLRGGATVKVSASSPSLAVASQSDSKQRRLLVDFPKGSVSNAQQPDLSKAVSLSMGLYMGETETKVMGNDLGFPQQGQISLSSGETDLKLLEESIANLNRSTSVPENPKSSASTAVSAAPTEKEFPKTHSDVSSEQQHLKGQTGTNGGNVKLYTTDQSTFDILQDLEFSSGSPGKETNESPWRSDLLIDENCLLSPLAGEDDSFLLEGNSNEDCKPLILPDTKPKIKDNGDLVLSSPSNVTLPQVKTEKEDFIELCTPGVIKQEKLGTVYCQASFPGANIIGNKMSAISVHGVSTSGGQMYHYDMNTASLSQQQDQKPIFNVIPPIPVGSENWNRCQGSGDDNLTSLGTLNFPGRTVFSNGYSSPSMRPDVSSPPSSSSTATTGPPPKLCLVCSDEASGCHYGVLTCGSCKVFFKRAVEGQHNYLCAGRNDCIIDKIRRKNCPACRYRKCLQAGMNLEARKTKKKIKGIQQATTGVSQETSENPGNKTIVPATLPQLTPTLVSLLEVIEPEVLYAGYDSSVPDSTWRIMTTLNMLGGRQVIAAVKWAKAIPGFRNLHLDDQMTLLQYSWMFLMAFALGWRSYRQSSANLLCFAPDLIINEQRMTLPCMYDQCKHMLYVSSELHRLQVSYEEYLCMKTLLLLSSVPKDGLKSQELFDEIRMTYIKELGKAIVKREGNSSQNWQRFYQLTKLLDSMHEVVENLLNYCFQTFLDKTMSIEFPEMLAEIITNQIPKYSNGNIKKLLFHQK
# Test: Human Glucocorticoid Receptor (GR) Assay (fluorescence polarization, Panvera/Invitrogen kit)
# Conditions: GS Red tracer, 2 hours at room temperature, 100% control 10 μM Dexamethasone, read-out: Inhibition of GR binding, IC50
# Protocol: Human Glucocorticoid Receptor (GR) Assay The assay is based on a commercial kit from Panvera/Invitrogen (Part number P2893). The assay technology is fluorescence polarization. The kit utilises recombinant human GR (Panvera, Part number P2812), a Fluoromone™ labelled tracer (GS Red, Panvera, Part number P2894) and a Stabilizing Peptide 10× (Panvera, Part number P2815). The GR and Stabilizing Peptide reagents are stored at −70° C. while the GS Red is stored at −20° C. Also included in the kit are 1M DTT (Panvera, Part number P2325, stored at −20° C.) and GR Screening buffer 10× (Panvera, Part number P2814, stored at −70° C. initially but once thawed stored at room temperature). Avoid repeated freeze/thaws for all reagents. The GR Screening buffer 10× comprises 100 mM potassium phosphate, 200 mM sodium molybdate, 1 mM EDTA and 20% DMSO. Test compounds (1 μL) and controls (1 μL) in 100% DMSO were added to black polystyrene 384-well plates (Greiner low volume black flat-bottom, part number 784076). 0% control was 100% DMSO and 100% control was 10 μM Dexamethasone. Background solution (8 μL; assay buffer 10×, Stabilizing Peptide, DTT and ice cold MQ water) was added to the background wells. GS Red solution (7 μL; assay buffer 10×, Stabilizing Peptide, DTT, GS Red and ice cold water) was added to all wells except background wells. GR solution (7 μL; assay buffer 10×, Stabilizing Peptide, DTT, GR and ice cold water) was added to all wells. The plate was sealed and incubated in a dark at room temperature for 2 hours. The plate was read in an Analyst plate reader (LJL Biosystems/Molecular Devices Corporation) or other similar plate reader capable of recording fluorescence polarization (excitation wavelength 530 nm, emission wavelength 590 nm and a dichroic mirror at 561 nm).
row,IC50 [nM],Structure (SMILES)
1,1.5,"C[C@]12C=CC(=O)C=C1CC[C@@H]1[C@@H]2[C@@H](O)C[C@@]2(C)[C@H]1C[C@H]1OC(c3ccccc3F)O[C@]12C(=O)SCC#N (stereo partly drawn) [Example 42, S-(Cyanomethyl)(4aR,4bS,5S,6aS,6bS,9aR,10aS,10bS)-8-(2-fluorophenyl)-5-hydroxy-4a,6a-dimethyl-2-oxo-2,4a,4b,5,6,6a,9a,10,10a,10b,11,12-dodecahydro-6bH-naphtho[2′,1′:4,5]indeno[1,2-d][1,3]dioxole-6b-carbothioate]"
2,1.2,"Cc1ccc(C2O[C@@H]3C[C@H]4[C@@H]5C[C@H](F)C6=CC(=O)C=C[C@]6(C)[C@@]5(F)[C@@H](O)C[C@]4(C)[C@]3(C(=O)SCC#N)O2)cc1 (stereo partly drawn) [Example 24, S-(Cyanomethyl)(4aS,4bR,5S,6aS,6bS,9aR,10aS,10bS,12S)-4b,12-difluoro-5-hydroxy-4a,6a-dimethyl-8-(4-methylphenyl)-2-oxo-2,4a,4b,5,6,6a,9a,10,10a,10b,11,12-dodecahydro-6bH-naphtho[2′,1′:4,5]indeno[1,2-d][1,3]dioxole-6b-carbothioate]"
3,0.96,"CSC(=O)[C@@]12O[C@@H](c3cccs3)O[C@@H]1C[C@H]1[C@@H]3C[C@H](F)C4=CC(=O)C=C[C@]4(C)[C@@]3(F)[C@@H](O)C[C@@]12C [Example 4, S-Methyl (4aS,4bR,5S,6aS,6bS,8S,9aR,10aS,10bS,12S)-4b,12-difluoro-5-hydroxy-4a,6a-dimethyl-2-oxo-8-(2-thienyl)-2,4a,4b,5,6,6a,9a,10,10a,10,11,12-dodecahydro-6bH-naphtho[2′,1′:4,5]indeno[1,2-d][1,3]dioxole-6b-carbothioate]"
4,1,"C[C@]12C=CC(=O)C=C1CC[C@@H]1[C@@H]2[C@@H](O)C[C@@]2(C)[C@H]1C[C@H]1OC(c3ccco3)O[C@]12C(=O)SCF (stereo partly drawn) [Example 34, S-(Fluoromethyl)(4aR,4bS,5S,6aS,6bS,9aR,10aS,10bS)-8-furan-2-yl-5-hydroxy-4a,6a-dimethyl-2-oxo-2,4a,4b,5,6,6a,9a,10,10a,10b,11,12-dodecahydro-6bH-naphtho[2′,1′:4,5]indeno[1,2-d][1,3]dioxole-6b-carbothioate]"
5,1.1,"C[C@]12C=CC(=O)C=C1[C@@H](F)C[C@H]1[C@@H]3C[C@H]4OC(c5ccccc5)O[C@@]4(C(=O)SCF)[C@@]3(C)C[C@H](O)[C@@]12F (stereo partly drawn) [Example 30, S-(Fluoromethyl)(4aS,4bR,5S,6aS,6bS,9aR,10aS,10bS,12S)-4b,12-difluoro-5-hydroxy-4a,6a-dimethyl-2-oxo-8-phenyl-2,4a,4b,5,6,6a,9a,10,10a,10b,11,12-dodecahydro-6bH-naphtho[2′,1′:4,5]indeno[1,2-d][1,3]dioxole-6b-carbothioate]"
6,0.7,"C[C@]12C=CC(=O)C=C1[C@@H](F)C[C@H]1[C@@H]3C[C@H]4OC(c5cccc(C#N)c5)O[C@@]4(C(=O)SCC#N)[C@@]3(C)C[C@H](O)[C@@]12F (stereo partly drawn) [Example 25, S-(Cyanomethyl)(4aS,4bR,5S,6aS,6bS,9aR,10aS,10bS,12S)-8-(3-cyanophenyl)-4b,12-difluoro-5-hydroxy-4a,6a-dimethyl-2-oxo-2,4a,4b,5,6,6a,9a,10,10a,10b,11,12-dodecahydro-6bH-naphtho[2′,1′:4,5]indeno[1,2-d][1,3]dioxole-6b-carbothioate]"
7,1.1,"CSC(=O)[C@@]12OC(c3ccc(F)cc3F)O[C@@H]1C[C@H]1[C@@H]3C[C@H](F)C4=CC(=O)C=C[C@]4(C)[C@@]3(F)[C@@H](O)C[C@@]12C (stereo partly drawn) [Example 5, S-Methyl (4aS,4bR,5S,6aS,6bS,9aR,10aS,10bS,12S)-8-(2,4-difluorophenyl)-4b,12-difluoro-5-hydroxy-4a,6a-dimethyl-2-oxo-2,4a,4b,5,6,6a,9a,10,10a,10b,11,12-dodecahydro-6bH-naphtho[2′,1′:4,5]indeno[1,2-d][1,3]dioxole-6b-carbothioate]"
8,2.2,"CSC(=O)[C@@]12OC(c3ccc(C(F)(F)F)cc3)O[C@@H]1C[C@H]1[C@@H]3CCC4=CC(=O)C=C[C@]4(C)[C@H]3[C@@H](O)C[C@@]12C (stereo partly drawn) [Example 41, S-Methyl (4aR,4bS,5S,6aS,6bS,9aR,10aS,10bS)-5-hydroxy-4a,6a-dimethyl-2-oxo-8-[4-(trifluoromethyl)phenyl]-2,4a,4b,5,6,6a,9a,10,10a,10b,11,12-dodecahydro-6bH-naphtho[2′,1′:4,5]indeno[1,2-d][1,3]dioxole-6b-carbothioate]"
9,1.7,"C[C@]12C=CC(=O)C=C1CC[C@@H]1[C@@H]2[C@@H](O)C[C@@]2(C)[C@H]1C[C@H]1OC(c3ccc(C(F)(F)F)cc3)O[C@]12C(=O)SCF (stereo partly drawn) [Example 40, S-(Fluoromethyl)(4aR,4bS,5S,6aS,6bS,9aR,10aS,10bS)-5-hydroxy-4a,6a-dimethyl-2-oxo-8-[4-(trifluoromethyl)phenyl]-2,4a,4b,5,6,6a,9a,10,10a,10,11,12-dodecahydro-6bH-naphtho[2′,1′:4,5]indeno[1,2-d][1,3]dioxole-6b-carbothioate]"
10,1.2,"C[C@]12C=CC(=O)C=C1[C@@H](F)C[C@H]1[C@@H]3C[C@H]4OC(c5ccc(C(F)(F)F)o5)O[C@@]4(C(=O)SCF)[C@@]3(C)C[C@H](O)[C@@]12F (stereo partly drawn) [Example 14, S-(Fluoromethyl)(4aS,4bR,5S,6aS,6bS,9aR,10aS,10bS,12S)-4b,12-difluoro-5-hydroxy-4a,6a-dimethyl-2-oxo-8-[5-(trifluoromethyl)-2-furyl]-2,4a,4b,5,6,6a,9a,10,10a,10b,11,12-dodecahydro-6bH-naphtho[2′,1′:4,5]indeno[1,2-d][1,3]dioxole-6b-carbothioate]"
11,1.2,C[C@]12C=CC(=O)C=C1[C@@H](F)C[C@H]1[C@@H]3C[C@H]4OC(c5ccco5)O[C@@]4(C(=O)SCC#CCO)[C@@]3(C)C[C@H](O)[C@@]12F (stereo partly drawn) [Example 2]
12,4.8,"C[C@]12C=CC(=O)C=C1[C@@H](F)C[C@H]1[C@@H]3C[C@H]4OC(c5ccc(OC(F)(F)F)cc5)O[C@@]4(C(=O)SCC#N)[C@@]3(C)C[C@H](O)[C@@]12F (stereo partly drawn) [Example 19, S-(Cyanomethyl)(4aS,4bR,5S,6aS,6bS,9aR,10aS,10bS,12S)-4b,12-difluoro-5-hydroxy-4a,6a-dimethyl-2-oxo-8-[4-(trifluoromethoxy)phenyl]-2,4a,4b,5,6,6a,9a,10,10a,10b,11,12-dodecahydro-6bH-naphtho[2′,1′:4,5]indeno[1,2-d][1,3]dioxole-6b-carbothioate]"
13,1.2,C[C@]12C=CC(=O)C=C1[C@@H](F)C[C@H]1[C@@H]3C[C@H]4OC(c5ccco5)O[C@@]4(C(=O)SCC#N)[C@@]3(C)C[C@H](O)[C@@]12F (stereo partly drawn) [Example 1]
14,1.4,"COc1ccc(C2O[C@@H]3C[C@H]4[C@@H]5CCC6=CC(=O)C=C[C@]6(C)[C@H]5[C@@H](O)C[C@]4(C)[C@]3(C(=O)SCC#N)O2)c(F)c1 (stereo partly drawn) [Example 37, S-(Cyanomethyl)(4aR,4bS,5S,6aS,6bS,9aR,10aS,10bS)-8-(2-fluoro-4-methoxyphenyl)-5-hydroxy-4a,6a-dimethyl-2-oxo-2,4a,4b,5,6,6a,9a,10,10a,10b,11,12-dodecahydro-6bH-naphtho[2′,1′:4,5]indeno[1,2-d][1,3]dioxole-6b-carbothioate]"
15,0.86,"C[C@]12C=CC(=O)C=C1[C@@H](F)C[C@H]1[C@@H]3C[C@H]4OC(c5cc6ccccc6o5)O[C@@]4(C(=O)SCF)[C@@]3(C)C[C@H](O)[C@@]12F (stereo partly drawn) [Example 12, S-(Fluoromethyl)(4aS,4bR,5S,6aS,6bS,9aR,10aS,10bS,12S)-8-(1-benzofuran-2-yl)-4b,12-difluoro-5-hydroxy-4a,6a-dimethyl-2-oxo-2,4a,4b,5,6,6a,9a,10,10a,10b,11,12-dodecahydro-6bH-naphtho[2′,1′:4,5]indeno[1,2-d][1,3]dioxole-6b-carbothioate]"
